Among the data in patent US7592345B2, “Piperazine and [1,4]diazepan derivatives as NK antagonists” (Hoffmann-La Roche Inc., priority 2007, dated 2009) are Ki values, retold here.

The target in the assay is T1, recombinant human NK3 receptor (Homo sapiens, UniProt P29371).
T1 construct: expressed in transfected cells; host or cells: HEK293 cells (transient expression), membranes
T1 sequence (P29371 1-465): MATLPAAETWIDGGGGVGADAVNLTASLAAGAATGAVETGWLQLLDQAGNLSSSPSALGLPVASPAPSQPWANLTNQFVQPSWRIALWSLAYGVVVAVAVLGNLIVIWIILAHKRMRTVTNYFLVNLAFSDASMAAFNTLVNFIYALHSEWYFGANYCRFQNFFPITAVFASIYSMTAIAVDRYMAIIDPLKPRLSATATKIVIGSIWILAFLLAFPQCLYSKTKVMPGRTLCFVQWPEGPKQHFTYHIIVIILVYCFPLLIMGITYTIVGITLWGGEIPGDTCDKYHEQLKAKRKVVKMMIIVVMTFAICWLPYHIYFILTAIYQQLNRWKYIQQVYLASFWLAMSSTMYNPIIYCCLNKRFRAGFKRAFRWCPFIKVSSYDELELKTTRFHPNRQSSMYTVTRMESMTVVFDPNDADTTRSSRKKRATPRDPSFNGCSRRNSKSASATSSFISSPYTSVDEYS
In words: [3H]SR142801 competition binding assay. The settings on record: [3H]SR142801, membranes from HEK293 cells transiently expressing recombinant human NK3 receptor; read-out: hNK3 Ki. As to the method: [^3H]SR142801 Competition Binding Assay
hNK3 receptor binding experiment were performed using [^3H]SR142801 (Catalog No. TRK1035, specific activity: 74.0 Ci/mmol, Amersham, GE Healthcare UK limited, Buckinghamshire, UK) and membrane isolated from HEK293 cells transiently expressing recombinant human NK3 receptor. After thawing, the membrane homogenates were centrifuged at 48,000×g for 10 min at 4° C., the pellets were resuspended in the 50 mM Tris-HCl, 4 mM MnCl2, 1 μM phosphoramidon, 0.1% BSA binding buffer at pH 7.4 to a final assay concentration of 5 μg protein/well. For inhibition experiments, membranes were incubated with [^3H]SR142801 at a concentration equal to KD value of radioligand and 10 concentrations of the inhibitory compound (0.0003-10 μM) (in a total reaction volume of 500 μl) for 75 min at room temperature (RT). At the end of the incubation, membranes were filtered onto unitfilter (96-well white microplate with bonded GF/C filter preincubated 1 h in 0.3% PEI+0.3% BSA, Packard BioScience, Meriden, Conn.) with a Filtermate 196 harvester (Packard BioScience) and washed 4 times with ice-cold 50 mM Tris-HCl, pH 7.4 buffer. Nonspecific binding was measured in the presence of 10 μM SB222200 for both radioligands. The radioactivity on the filter was counted (5 min) on a Packard Top-count microplate scintillation counter with quenching correction after addition of 45 μl of microscint 40 (Canberra Packard S. A., Zürich, Switzerland) and shaking for 1 h. Inhibition curves were fitted according to the Hill equation: y=100/(1+(x/IC50)^nH), where nH=slope factor using Excel-fit 4 software (Microsoft). IC50 values were derived from the inhibition curve and the affinity constant (Ki) values were calculated using the Cheng-Prussoff equation Ki=IC50/(1+[L]/KD) where [L] is the concentration of radioligand and KD is its dissociation constant at the receptor, derived from the saturation isotherm. All experiments were performed in duplicate and the mean±standard error (SEM) of the individual Ki values was calculated.
Usually Ki stands for the dissociation constant of the complex between target and ligand, obtained from inhibition or displacement. `C[C@H]1CN(CC[C@](C)(C(=O)NCc2ccc(Cl)c(Cl)c2)c2ccc(Cl)c(Cl)c2)CCN1S(C)(=O)=O` (single isomer, unassigned) [Example 93, (S or R)—N-(3,4-Dichloro-benzyl)-2-(3,4-dichloro-phenyl)-4-((R)-4-methanesulfonyl-3-methyl-piperazin-1-yl)-2-methyl-butyramide]: the Ki was 19.2 nM.
Turning to `C[C@H]1CN(CC[C@@](C)(C(=O)NCc2ccc(Cl)c(Cl)c2)c2ccc(Cl)c(Cl)c2)CCN1S(C)(=O)=O` (single isomer, unassigned) [Example 94, (R or S)—N-(3,4-Dichloro-benzyl)-2-(3,4-dichloro-phenyl)-4-((R)-4-methanesulfonyl-3-methyl-piperazin-1-yl)-2-methyl-butyramide], the inhibition constant (Ki) turned out to be 112 nM.
Take `CC(CCN1CCN(S(C)(=O)=O)CC1)(C(=O)N[C@@H](CO)c1ccccc1)c1ccc(Cl)c(Cl)c1` (single isomer, unassigned) [Example 128, (R or S)-2-(3,4-Dichloro-phenyl)-N-((R)-2-hydroxy-1-phenyl-ethyl)-4-(4-methanesulfonyl-piperazin-1-yl)-2-methyl-butyramide]: the Ki was found to be 40.6 nM.
The same measure for `CC(CCN1CCN(S(C)(=O)=O)CC1)(C(=O)N[C@@H](CO)c1ccccc1)c1ccc(Cl)c(Cl)c1` (single isomer, unassigned) [Example 129, (S or R)-2-(3,4-Dichloro-phenyl)-N-((R)-2-hydroxy-1-phenyl-ethyl)-4-(4-methanesulfonyl-piperazin-1-yl)-2-methyl-butyramide]: 334 nM; for `CN(Cc1ccc(Cl)cc1)C(=O)C(CCN1CCN(S(C)(=O)=O)CC1)c1ccc(Cl)c(Cl)c1` (stereo not shown) [Example 1, N-(4-Chloro-benzyl)-2-(3,4-dichloro-phenyl)-4-(4-methanesulfonyl-piperazin-1-yl)-N-methyl-butyramide]: 171 nM; for `CN(Cc1ccc(-c2ccncc2)cc1)C(=O)C(CCN1CCN(S(C)(=O)=O)CC1)c1ccc(Cl)c(Cl)c1` (stereo not shown) [Example 2, 2-(3,4-Dichloro-phenyl)-4-(4-methanesulfonyl-piperazin-1-yl)-N-methyl-N-(4-pyridin-4-yl-benzyl)-butyramide]: 315 nM.
On to `CN(Cc1ccccc1Cl)C(=O)C(CCN1CCN(S(C)(=O)=O)CC1)c1ccc(Cl)c(Cl)c1` (stereo not shown) [Example 3, N-(2-Chloro-benzyl)-2-(3,4-dichloro-phenyl)-4-(4-methanesulfonyl-piperazin-1-yl)-N-methyl-butyramide], for which the inhibition constant (Ki) was determined as 655 nM.
For the compound `CN(Cc1ccccc1)C(=O)C(CCN1CCN(S(C)(=O)=O)CC1)c1ccc(Cl)c(Cl)c1` (stereo not shown) [Example 4, N-Benzyl-2-(3,4-dichloro-phenyl)-4-(4-methanesulfonyl-piperazin-1-yl)-N-methyl-butyramide], the inhibitory constant (Ki) was 355 nM.
In the case of `CN(Cc1ccc(C(F)(F)F)cc1)C(=O)C(CCN1CCN(S(C)(=O)=O)CC1)c1ccc(Cl)c(Cl)c1` (stereo not shown) [Example 5, 2-(3,4-Dichloro-phenyl)-4-(4-methanesulfonyl-piperazin-1-yl)-N-methyl-N-(4-trifluoromethyl-benzyl)-butyramide], the Ki was 136 nM.
Consider `COc1ccc(CN(C)C(=O)C(CCN2CCN(S(C)(=O)=O)CC2)c2ccc(Cl)c(Cl)c2)cc1F` (stereo not shown) [Example 6, 2-(3,4-Dichloro-phenyl)-N-(3-fluoro-4-methoxy-benzyl)-4-(4-methanesulfonyl-piperazin-1-yl)-N-methyl-butyramide], for which the Ki is 690 nM.
Regarding `CN(Cc1cccc(F)c1)C(=O)C(CCN1CCN(S(C)(=O)=O)CC1)c1ccc(Cl)c(Cl)c1` (stereo not shown) [Example 7, 2-(3,4-Dichloro-phenyl)-N-(3-fluoro-benzyl)-4-(4-methanesulfonyl-piperazin-1-yl)-N-methyl-butyramide], the inhibition constant (Ki) came to 388 nM.
With `CC(CCN1CCN(S(C)(=O)=O)CC1)(C(=O)NCc1cccc(C(F)(F)F)c1)c1ccc(Cl)c(Cl)c1` (stereo not shown) [Example 8, 2-(3,4-Dichloro-phenyl)-4-(4-methanesulfonyl-piperazin-1-yl)-2-methyl-N-(3-trifluoromethyl-benzyl)-butyramide], the Ki was 288 nM.
`CC(CCN1CCN(S(C)(=O)=O)CC1)(C(=O)NCc1cccc(OC(F)(F)F)c1)c1ccc(Cl)c(Cl)c1` (stereo not shown) [Example 9, 2-(3,4-Dichloro-phenyl)-4-(4-methanesulfonyl-piperazin-1-yl)-2-methyl-N-(3-trifluoromethoxy-benzyl)-butyramide]: the Ki worked out at 190 nM.
As for `CN(Cc1cccc(Cl)c1)C(=O)C(C)(CCN1CCN(S(C)(=O)=O)CC1)c1ccc(Cl)c(Cl)c1` (stereo not shown) [Example 10, N-(3-Chloro-benzyl)-2-(3,4-dichloro-phenyl)-4-(4-methanesulfonyl-piperazin-1-yl)-2,N-dimethyl-butyramide], the Ki is 145 nM.
The same measure for `CC(CCN1CCN(S(C)(=O)=O)CC1)(C(=O)NCc1cccc(OC(F)F)c1)c1ccc(Cl)c(Cl)c1` (stereo not shown) [Example 11, 2-(3,4-Dichloro-phenyl)-N-(3-difluoromethoxy-benzyl)-4-(4-methanesulfonyl-piperazin-1-yl)-2-methyl-butyramide]: 417 nM; for `CN(Cc1ccc(Cl)cc1)C(=O)C(C)(CCN1CCN(S(C)(=O)=O)CC1)c1ccc(Cl)c(Cl)c1` (stereo not shown) [Example 12, N-(4-Chloro-benzyl)-2-(3,4-dichloro-phenyl)-4-(4-methanesulfonyl-piperazin-1-yl)-2,N-dimethyl-butyramide]: 66.4 nM.
The same measure for `CC(CCN1CCN(S(C)(=O)=O)CC1)(C(=O)NCc1ccc(OC(F)F)cc1)c1ccc(Cl)c(Cl)c1` (stereo not shown) [Example 13, 2-(3,4-Dichloro-phenyl)-N-(4-difluoromethoxy-benzyl)-4-(4-methanesulfonyl-piperazin-1-yl)-2-methyl-butyramide]: 326 nM; for `CC(NC(=O)C(C)(CCN1CCN(S(C)(=O)=O)CC1)c1ccc(Cl)c(Cl)c1)c1ccc(Cl)cc1` (stereo not shown) [Example 14, N-[1-(4-Chloro-phenyl)-ethyl]-2-(3,4-dichloro-phenyl)-4-(4-methanesulfonyl-piperazin-1-yl)-2-methyl-butyramide]: 171 nM.
The same measure for `COc1ccc(C(NC(=O)C(C)(CCN2CCN(S(C)(=O)=O)CC2)c2ccc(Cl)c(Cl)c2)C2CC2)cc1` (stereo not shown) [Example 15, N-[Cyclopropyl-(4-methoxy-phenyl)-methyl]-2-(3,4-dichloro-phenyl)-4-(4-methanesulfonyl-piperazin-1-yl)-2-methyl-butyramide]: 234 nM; for `CN(Cc1ccccc1Cl)C(=O)C(C)(CCN1CCN(S(C)(=O)=O)CC1)c1ccc(Cl)c(Cl)c1` (stereo not shown) [Example 16, N-(2-Chloro-benzyl)-2-(3,4-dichloro-phenyl)-4-(4-methanesulfonyl-piperazin-1-yl)-2,N-dimethyl-butyramide]: 169 nM; for `CC(CCN1CCN(S(C)(=O)=O)CC1)(C(=O)NCc1ccc(OC(F)(F)F)cc1)c1ccc(Cl)c(Cl)c1` (stereo not shown) [Example 17, 2-(3,4-Dichloro-phenyl)-4-(4-methanesulfonyl-piperazin-1-yl)-2-methyl-N-(4-trifluoromethoxy-benzyl)-butyramide]: 146 nM.
For `CC(CCN1CCN(S(C)(=O)=O)CC1)(C(=O)NCc1ccc(C#N)cc1)c1ccc(Cl)c(Cl)c1` (stereo not shown) [Example 18, N-(4-Cyano-benzyl)-2-(3,4-dichloro-phenyl)-4-(4-methanesulfonyl-piperazin-1-yl)-2-methyl-butyramide], the Ki is 434 nM.
